Results published in ChEMBL document CHEMBL4364344, “Design, synthesis and evaluation of activity and pharmacokinetic profile of new derivatives of xanthone and piperazine in the central nervous system” (Bioorg Med Chem Lett, 2019).

How the values were obtained:
[1] = biological target: D(1A) dopamine receptor (Homo sapiens) (UniProt P21728); assay: Displacement of [3H]SCH 23390 from recombinant human D1 dopamine receptor at 10 uM after 60 mins by radiometric scintillation analysis relative to control
Sequence of D(1A) dopamine receptor (Homo sapiens) (P21728 whole entry): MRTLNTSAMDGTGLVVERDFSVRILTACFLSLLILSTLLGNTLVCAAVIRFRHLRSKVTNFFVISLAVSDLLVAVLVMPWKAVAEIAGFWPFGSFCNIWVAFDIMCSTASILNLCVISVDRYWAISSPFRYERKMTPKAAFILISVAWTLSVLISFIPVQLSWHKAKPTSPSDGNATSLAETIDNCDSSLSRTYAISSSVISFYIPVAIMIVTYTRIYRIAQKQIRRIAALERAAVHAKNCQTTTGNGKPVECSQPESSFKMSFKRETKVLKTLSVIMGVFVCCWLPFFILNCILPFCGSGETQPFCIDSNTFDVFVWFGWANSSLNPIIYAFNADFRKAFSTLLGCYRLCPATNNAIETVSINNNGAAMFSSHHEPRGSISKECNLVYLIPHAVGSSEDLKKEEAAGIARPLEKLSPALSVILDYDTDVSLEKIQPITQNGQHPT

[2] = biological target: Melanocortin receptor 4 (Homo sapiens) (UniProt P32245); assay: Displacement of [125I]NDP-alpha -MSH from recombinant human MC4 receptor at 10 uM after 120 mins by radiometric scintillation counting analysis relative to control
Sequence of Melanocortin receptor 4 (Homo sapiens) (P32245 whole entry): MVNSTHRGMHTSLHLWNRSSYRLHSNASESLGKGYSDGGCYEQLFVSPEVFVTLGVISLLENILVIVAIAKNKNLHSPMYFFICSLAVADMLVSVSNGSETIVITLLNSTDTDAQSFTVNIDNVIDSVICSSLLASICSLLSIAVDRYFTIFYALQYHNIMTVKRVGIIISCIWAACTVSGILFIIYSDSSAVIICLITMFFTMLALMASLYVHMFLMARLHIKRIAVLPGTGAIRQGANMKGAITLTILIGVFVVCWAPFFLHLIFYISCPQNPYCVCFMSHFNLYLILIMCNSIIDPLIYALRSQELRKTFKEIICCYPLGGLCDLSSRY

[3] = biological target: Neurotensin receptor type 1 (Homo sapiens) (UniProt P30989); assay: Displacement of [125I]Tyr3-neurotensin from human NSTR1 receptor at 10 uM after 60 mins by radiometric scintillation analysis relative to control
Sequence of Neurotensin receptor type 1 (Homo sapiens) (P30989 whole entry): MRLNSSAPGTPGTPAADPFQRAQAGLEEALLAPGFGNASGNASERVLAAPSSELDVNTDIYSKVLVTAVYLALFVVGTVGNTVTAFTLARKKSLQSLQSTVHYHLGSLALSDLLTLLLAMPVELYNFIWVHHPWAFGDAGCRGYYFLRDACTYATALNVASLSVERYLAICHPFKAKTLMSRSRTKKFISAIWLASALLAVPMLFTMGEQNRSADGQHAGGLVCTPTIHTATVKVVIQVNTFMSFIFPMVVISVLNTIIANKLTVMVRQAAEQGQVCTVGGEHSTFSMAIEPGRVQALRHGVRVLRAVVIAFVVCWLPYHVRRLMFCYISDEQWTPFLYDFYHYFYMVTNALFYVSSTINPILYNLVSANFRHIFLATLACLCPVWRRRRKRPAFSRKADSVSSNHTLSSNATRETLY

[4] = biological target: Galanin receptor type 2 (Homo sapiens) (UniProt O43603); assay: Displacement of [125I]galanin from recombinant human GAL2 receptor at 10 uM after 120 mins by radiometric scintillation analysis relative to control
[5] = Mutagenicity in Salmonella typhimurium TA98 at 50 ug/plate preincubated for 20 mins followed by addition of top agar and measured after 48 hrs by Ames test; assay type: toxicity; conditions: salmonella enterica subsp. enterica serovar typhimurium
[6] = Mutagenicity in Salmonella typhimurium TA102 at 5 ug/plate preincubated for 20 mins followed by addition of top agar and measured after 48 hrs by Ames test; assay type: toxicity; conditions: salmonella enterica subsp. enterica serovar typhimurium
[7] = biological target: Somatostatin receptor type 4 (Mus musculus) (UniProt P49660); assay: Displacement of [125I]Tyr11-somatostatin-14 from mouse SST4 receptor at 10 uM after 120 mins by radiometric scintillation analysis relative to control
Sequence of Somatostatin receptor type 4 (Mus musculus) (P49660 as listed by the source): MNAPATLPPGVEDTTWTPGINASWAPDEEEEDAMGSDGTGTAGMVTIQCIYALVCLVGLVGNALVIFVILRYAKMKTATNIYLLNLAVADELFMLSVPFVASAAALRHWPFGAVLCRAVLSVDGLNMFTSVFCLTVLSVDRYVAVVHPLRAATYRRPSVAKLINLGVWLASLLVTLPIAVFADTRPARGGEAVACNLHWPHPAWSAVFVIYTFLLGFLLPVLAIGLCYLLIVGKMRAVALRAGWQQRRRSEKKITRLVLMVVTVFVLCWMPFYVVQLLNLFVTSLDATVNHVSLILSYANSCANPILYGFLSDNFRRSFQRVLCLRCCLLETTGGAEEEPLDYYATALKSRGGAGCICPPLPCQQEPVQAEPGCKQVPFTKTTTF

[8] = Mutagenicity in Salmonella typhimurium TA98 at 5 ug/plate preincubated for 20 mins followed by addition of top agar and measured after 48 hrs by Ames test; assay type: toxicity; conditions: salmonella enterica subsp. enterica serovar typhimurium
[9] = biological target: Small conductance calcium-activated potassium channel (Rattus norvegicus) (UniProt P70604+P70606+P70605); assay: Displacement of [125I]apamin from rat brain SKCa at 10 uM after 60 mins by radiometric scintillation analysis relative to control
[10] = MRT in CD-1 mouse brain at 5 mg/kg, ip measured up to 480 mins by LC/ESI-MS/MS analysis; assay type: ADME, organism-based
[11] = biological target: Melatonin receptor type 1A (Homo sapiens) (UniProt P48039); assay: Displacement of [125I]2-iodomelatonin from recombinant human MT1 receptor at 10 uM after 240 mins by radiometric scintillation counting analysis relative to control
Sequence of Melatonin receptor type 1A (Homo sapiens) (P48039 whole entry): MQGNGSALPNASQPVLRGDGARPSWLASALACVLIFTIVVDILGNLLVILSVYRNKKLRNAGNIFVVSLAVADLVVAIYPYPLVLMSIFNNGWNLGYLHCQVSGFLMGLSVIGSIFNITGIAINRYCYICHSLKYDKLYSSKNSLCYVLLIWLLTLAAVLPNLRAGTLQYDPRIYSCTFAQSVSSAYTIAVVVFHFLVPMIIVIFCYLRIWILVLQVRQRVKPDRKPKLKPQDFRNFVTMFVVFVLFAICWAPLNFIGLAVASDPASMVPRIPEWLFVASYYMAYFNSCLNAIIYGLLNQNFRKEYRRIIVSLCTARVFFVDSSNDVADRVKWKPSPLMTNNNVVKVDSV

[12] = biological target: Adrenergic receptor alpha-2 (Rattus norvegicus) (UniProt P22086+P19328+P22909); assay: Displacement of [3H]RX 821002 from rat brain alpha 2 receptor at 10 uM after 60 mins by radiometric scintillation analysis relative to control
[13] = biological target: Prostaglandin E2 receptor EP4 subtype (Homo sapiens) (UniProt P35408); assay: Displacement of [3H]PGE2 from recombinant human EP4 receptor at 10 uM after 120 mins by radiometric scintillation analysis relative to control
[14] = Terminal half life in CD-1 mouse plasma at 5 mg/kg, ip measured up to 480 mins by LC/ESI-MS/MS analysis; assay type: ADME, organism-based; conditions: read-out: beta t1/2
[15] = biological target: Vasoactive intestinal polypeptide receptor 1 (Homo sapiens) (UniProt P32241); assay: Displacement of [125I]VIP recombinant human VPAC1 receptor at 10 uM after 120 mins by radiometric scintillation analysis relative to control
Sequence of Vasoactive intestinal polypeptide receptor 1 (Homo sapiens) (P32241 whole entry): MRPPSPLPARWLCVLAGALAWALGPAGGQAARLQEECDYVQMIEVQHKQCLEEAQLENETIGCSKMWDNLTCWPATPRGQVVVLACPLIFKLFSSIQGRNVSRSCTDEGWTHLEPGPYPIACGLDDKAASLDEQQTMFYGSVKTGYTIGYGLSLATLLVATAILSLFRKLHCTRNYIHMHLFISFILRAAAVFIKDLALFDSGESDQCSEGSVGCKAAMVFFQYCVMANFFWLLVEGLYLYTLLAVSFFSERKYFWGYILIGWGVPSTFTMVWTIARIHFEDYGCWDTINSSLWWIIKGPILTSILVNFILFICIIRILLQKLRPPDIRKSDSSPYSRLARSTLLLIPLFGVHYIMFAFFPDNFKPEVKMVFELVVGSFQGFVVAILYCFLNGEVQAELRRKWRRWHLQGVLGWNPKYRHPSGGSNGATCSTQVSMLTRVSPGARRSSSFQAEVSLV

[16] = biological target: Beta-2 adrenergic receptor (Homo sapiens) (UniProt P07550); assay: Displacement of [3H](-)CGP 12177 from recombinant human beta 2 receptor at 10 uM after 120 mins by radiometric scintillation analysis relative to control
Sequence of Beta-2 adrenergic receptor (Homo sapiens) (P07550 whole entry, looked up): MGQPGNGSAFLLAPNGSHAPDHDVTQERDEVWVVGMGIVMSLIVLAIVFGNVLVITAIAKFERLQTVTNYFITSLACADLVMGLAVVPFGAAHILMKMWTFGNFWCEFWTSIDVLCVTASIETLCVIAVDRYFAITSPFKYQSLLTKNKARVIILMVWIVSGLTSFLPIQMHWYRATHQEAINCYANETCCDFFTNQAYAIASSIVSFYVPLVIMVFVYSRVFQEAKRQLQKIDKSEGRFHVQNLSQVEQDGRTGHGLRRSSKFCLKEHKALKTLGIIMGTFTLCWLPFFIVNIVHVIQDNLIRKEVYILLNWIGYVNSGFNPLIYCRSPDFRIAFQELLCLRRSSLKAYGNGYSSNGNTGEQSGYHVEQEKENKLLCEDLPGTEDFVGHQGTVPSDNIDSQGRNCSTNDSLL

[17] = biological target: C-X-C chemokine receptor type 2 (Homo sapiens) (UniProt P25025); assay: Displacement of [125I]IL-8 from recombinant human CXCR2 at 10 uM after 60 mins by radiometric scintillation analysis relative to control
[18] = biological target: 5-hydroxytryptamine receptor 2B (Homo sapiens, UniProt P41595); assay: Displacement of [125I](+/-)DOI from recombinant human 5-HT2B receptor at 10 uM after 60 mins by radiometric scintillation analysis relative to control
Sequence of 5-hydroxytryptamine receptor 2B (P41595 whole entry): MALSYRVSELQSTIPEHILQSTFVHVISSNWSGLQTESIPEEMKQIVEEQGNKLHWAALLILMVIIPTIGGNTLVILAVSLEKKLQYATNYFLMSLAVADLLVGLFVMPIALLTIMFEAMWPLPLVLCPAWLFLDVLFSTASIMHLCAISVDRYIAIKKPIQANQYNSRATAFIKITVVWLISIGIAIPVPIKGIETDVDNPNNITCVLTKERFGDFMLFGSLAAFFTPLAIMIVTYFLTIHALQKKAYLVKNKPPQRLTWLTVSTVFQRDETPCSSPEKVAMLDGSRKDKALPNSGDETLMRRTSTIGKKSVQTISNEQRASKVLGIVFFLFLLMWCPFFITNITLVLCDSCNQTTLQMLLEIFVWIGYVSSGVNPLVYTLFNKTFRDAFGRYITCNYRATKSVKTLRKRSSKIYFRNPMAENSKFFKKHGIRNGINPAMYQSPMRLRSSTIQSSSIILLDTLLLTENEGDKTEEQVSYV

[19] = biological target: Muscarinic acetylcholine receptor M1 (Homo sapiens) (UniProt P11229); assay: Displacement of [3H]pirenzepine from recombinant human M1 receptor at 10 uM after 60 mins by radiometric scintillation analysis relative to control
Sequence of Muscarinic acetylcholine receptor M1 (Homo sapiens) (P11229 whole entry): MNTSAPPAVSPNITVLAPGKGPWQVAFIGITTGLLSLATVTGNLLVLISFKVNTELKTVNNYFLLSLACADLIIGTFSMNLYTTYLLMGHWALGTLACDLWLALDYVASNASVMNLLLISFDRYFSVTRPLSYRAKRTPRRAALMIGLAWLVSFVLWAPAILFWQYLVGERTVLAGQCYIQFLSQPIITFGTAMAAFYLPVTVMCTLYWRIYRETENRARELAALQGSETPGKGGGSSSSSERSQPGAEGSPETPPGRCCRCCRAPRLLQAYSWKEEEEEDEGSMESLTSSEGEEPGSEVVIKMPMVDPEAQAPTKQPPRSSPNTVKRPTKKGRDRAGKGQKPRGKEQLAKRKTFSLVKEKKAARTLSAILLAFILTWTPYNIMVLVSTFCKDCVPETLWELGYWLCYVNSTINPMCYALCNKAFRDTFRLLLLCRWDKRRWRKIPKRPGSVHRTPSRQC

Mus musculus = assay: Anxiolytic activity in albino Swiss CD-1 mouse assessed as increase in number of punished crossings at 5 mg/kg, ip administered 30 mins prior to test by four-plate test relative to control; assay type: functional
[20] = biological target: Serotonin 3 (5-HT3) receptor (Homo sapiens) (UniProt P46098+A5X5Y0+O95264+Q70Z44+Q8WXA8); assay: Displacement of [3H]BRL 43694 from recombinant human 5-HT3 receptor at 10 uM after 120 mins by radiometric scintillation analysis relative to control; assay type: protein-complex assay
[21] = Mutagenicity in Salmonella typhimurium TA102 at 50 ug/plate preincubated for 20 mins followed by addition of top agar and measured after 48 hrs by Ames test; assay type: toxicity; conditions: salmonella enterica subsp. enterica serovar typhimurium
[22] = biological target: Serotonin 2 (5-HT2) receptor (Rattus norvegicus) (UniProt P30994+P08909+P14842); assay: Displacement of [3H]ketanserin from 5-HT2 receptor in Wistar rat brain cortex membrane at 10 uM after 40 mins by scintillation counting analysis relative to control; assay type: cell membranes
Rattus norvegicus [23] = species: Rattus norvegicus; assay: Displacement of [3H]batrachotoxinin from rat brain sodium channel site 2 at 10 uM after 60 mins by scintillation counting analysis relative to control relative to control
[24] = biological target: Kappa-type opioid receptor (Homo sapiens) (UniProt P41145); assay: Displacement of [3H]U69593 from human KOR receptor at 10 uM after 60 mins by radiometric scintillation analysis relative to control
[25] = Ratio of drug uptake in CD-1 mouse brain to plasma at 5 mg/kg, ip measured up to 480 mins by LC/ESI-MS/MS analysis; assay type: ADME, organism-based; conditions: read-out: BPR
[26] = biological target: Adenosine receptor A1 (Homo sapiens) (UniProt P30542); assay: Displacement of [3H]DPCPX from recombinant human A1 receptor at 10 uM after 60 mins by radiometric scintillation analysis relative to control
Sequence of Adenosine receptor A1 (Homo sapiens) (P30542 whole entry): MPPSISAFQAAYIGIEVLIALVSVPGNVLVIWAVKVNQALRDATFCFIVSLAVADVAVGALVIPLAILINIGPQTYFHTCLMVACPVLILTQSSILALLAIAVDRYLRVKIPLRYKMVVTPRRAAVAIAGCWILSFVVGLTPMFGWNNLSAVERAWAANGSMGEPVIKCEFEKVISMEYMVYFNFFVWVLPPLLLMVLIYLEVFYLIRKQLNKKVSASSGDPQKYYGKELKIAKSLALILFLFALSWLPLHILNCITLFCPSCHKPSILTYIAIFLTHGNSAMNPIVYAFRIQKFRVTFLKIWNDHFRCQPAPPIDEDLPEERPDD

[27] = biological target: Neuropeptide Y receptor type 1 (Homo sapiens) (UniProt P25929); assay: Displacement of [125I]peptide YY from human Y1 receptor at 10 uM after 120 mins by radiometric scintillation analysis relative to control
Rattus norvegicus [28] = species: Rattus norvegicus; assay: Displacement of [125I]alpha-dendrotoxin rat brain voltage-gated potassium channel at 10 uM after 60 mins by radiometric scintillation analysis relative to control
[29] = biological target: Mu-type opioid receptor (Homo sapiens) (UniProt P35372); assay: Displacement of [3H]DAMGO from recombinant human MOR receptor at 10 uM after 120 mins by radiometric scintillation analysis relative to control
Sequence of Mu-type opioid receptor (Homo sapiens) (P35372 whole entry): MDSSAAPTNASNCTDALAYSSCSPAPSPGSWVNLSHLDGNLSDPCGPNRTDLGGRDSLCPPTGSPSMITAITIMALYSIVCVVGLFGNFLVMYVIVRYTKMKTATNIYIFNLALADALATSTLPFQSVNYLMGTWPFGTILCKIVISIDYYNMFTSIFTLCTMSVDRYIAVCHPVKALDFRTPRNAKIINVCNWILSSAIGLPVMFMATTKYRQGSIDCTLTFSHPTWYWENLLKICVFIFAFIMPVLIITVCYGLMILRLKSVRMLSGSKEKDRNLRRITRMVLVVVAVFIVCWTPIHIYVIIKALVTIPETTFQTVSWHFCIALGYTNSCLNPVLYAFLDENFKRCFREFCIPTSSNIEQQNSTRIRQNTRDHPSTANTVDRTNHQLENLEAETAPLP

[30] = biological target: 5-hydroxytryptamine receptor 1A (Homo sapiens) (UniProt P08908); assay: Displacement of [3H]8-OH-DPAT from recombinant human 5-HT1A receptor at 10 uM after 60 mins by radiometric scintillation analysis relative to control
Sequence of 5-hydroxytryptamine receptor 1A (Homo sapiens) (P08908 whole entry): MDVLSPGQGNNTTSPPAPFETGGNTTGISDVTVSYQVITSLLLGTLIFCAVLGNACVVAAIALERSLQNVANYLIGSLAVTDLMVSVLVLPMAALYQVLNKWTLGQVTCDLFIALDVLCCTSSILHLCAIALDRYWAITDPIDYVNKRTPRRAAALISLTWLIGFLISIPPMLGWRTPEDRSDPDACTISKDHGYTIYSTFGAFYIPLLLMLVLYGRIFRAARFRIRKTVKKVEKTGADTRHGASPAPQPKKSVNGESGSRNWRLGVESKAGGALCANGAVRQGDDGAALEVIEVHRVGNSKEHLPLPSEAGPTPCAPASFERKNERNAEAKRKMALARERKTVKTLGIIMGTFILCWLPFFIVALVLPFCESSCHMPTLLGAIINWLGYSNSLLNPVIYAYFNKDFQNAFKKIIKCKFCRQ

Cl.Cl.O=c1c2cc(Cl)ccc2oc2ccc(CN3CCN(CCOCCO)CC3)cc12
inhibition [1]: 8.9% | inhibition [2]: -4% | inhibition [3]: -3.5% | inhibition [4]: 1.4% | Activity_index [5]: 0.76 | Activity_index [6]: 0.93 | inhibition [7]: -2.9% | Activity_index [8]: 1.03 | inhibition [9]: 8.5% | MRT [10]: 2.58 h | inhibition [11]: 11.1% | inhibition [12]: 9.2% | inhibition [13]: 10.9% | half-life [14]: 173 min | inhibition [15]: -1.2% | inhibition [16]: 3.7% | inhibition [17]: 19.8% | inhibition [18]: 76.8% | inhibition [19]: 52.3% | Activity (Mus musculus): 66.6% | inhibition [20]: 5.5% | Activity_index [21]: 0.78 | inhibition [22]: 47% | inhibition (Rattus norvegicus [23]): 78.7% | inhibition [24]: 12.2% | Kp at 8 h [25]: 9.79 | inhibition [26]: 0.6% | inhibition [27]: -9.5% | inhibition (Rattus norvegicus [28]): -3.1% | inhibition [29]: 11.8% | inhibition [30]: -2.6%
